Laboratory results published in patent US9326513B2, “Fungicidal compositions” (Syngenta Participations AG, priority 2011, dated 2016).
Several values for one entry are separate records, joined by “and”; a condition that tells them apart may be missing. Identical values can stand only once.

Experiments:
[1] = system: Mycosphaerella arachidis (y. Cercospora arachidicola); assay: Mycosphaerella arachidis (brown leaf spot of groundnut), PDB microtiter plate, visual after 5-6 days; format: cell-based; conditions: single compound
[2] = system: Septoria tritici; assay: Septoria tritici (leaf blotch), YBG microtiter plate, photometric growth inhibition after 6 days; format: cell-based; conditions: Zymoseptoria tritici, 144 h, solo; for inhibition of growth at 0.15625 ppm: rate 0.15625 ppm, read-out: Activity; for inhibition of growth at 0.3125 ppm: rate 0.3125 ppm; for inhibition of growth at 0.625 ppm: rate 0.625 ppm; for inhibition of growth at 1.25 ppm: rate 1.25 ppm
[3] = system: Septoria tritici; assay: Septoria tritici (leaf blotch), PDB microtiter plate, visual after 72 hrs; format: cell-based; conditions: Zymoseptoria tritici, single compound; for inhibition at 0.25 ppm: read-out: Activity (%)
[4] = system: Sclerotinia sclerotiorum; assay: Sclerotinia sclerotiorum on oilseed rape, preventive treatment; format: in vivo; conditions: solo, 1 day preventive, 11 days after application
Excerpt: In the following Tables ‘Activity (%)’ means the assessed experimental activity (% disease control in this test when compared to untreated control leaf disks under the same conditions, which show extensive disease development) and “P” is the expected value calculated (expected) activity according to the COLBY formula (see above). The column headed ‘S?’ indicates whether or not synergy was observed, with ‘y’ meaning that synergy was observed.
Sclerotinia sclerotiorum on Oilseed Rape, Preventive Treatment
The compound activity was tested under 1 day preventive conditions. Oilseed rape plants with 3 unfolded leafs were sprayed with a track sprayer and 200 I/ha spray volume with the test compounds, either solo or in tankmix as shown in the table below.
1 day after application the plants were infested with a solution of Sclerotinia sclerotiorum mycelium. The plants were placed under plastic hoods and high humidity conditions in a climate chamber at 14 h day/10 h night cycle and 15° C. Disease infestation was evaluated visually 11 days after application and average activity calculated in relation to disease severity on untreated check.

[5] = system: Phakopsora pachyrhizi (triazole tolerant soybeanrust strain); assay: Phakopsora pachyrhizi on soybean, preventive treatment; format: in vivo; conditions: solo, soybean leaf discs, 1 day preventive, 11 days after application
[6] = system: Septoria tritici; assay: Septoria tritici on wheat, preventive treatment; format: in vivo; conditions: solo, wheat Riband, 1 day preventive, 18 days after application
[7] = system: Puccinia recondita f. sp. tritici; assay: Puccinia recondita f. sp. tritici / wheat / leaf disc curative (brown rust); format: in vivo; conditions: foliar, compared to untreated control leaf disks, read-out: disease control
Method: Puccinia recondita f. sp. tritici/Wheat/Leaf Disc Curative (Brown Rust) Wheat leaf segments cv. Kanzler are placed on agar in multiwell plates (24-well format). The leaf segments are inoculated with a spore suspension of the fungus. Plates were stored in darkness at 19° C. and 75% rh. The formulated test compound diluted in water was applied 1 day after inoculation.

[8] = system: Blumeria graminis f. sp. tritici (Erysiphe graminis f. sp. tritici); assay: Blumeria graminis f. sp. tritici / wheat / leaf disc preventative (powdery mildew on wheat); format: in vivo; conditions: foliar, compared to untreated control leaf disks, read-out: disease control
How it was run: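 Preventative leaf-disc test: compound (200 ppm) was sprayed onto cv. Kanzler wheat segments, which were dusted with conidia from infected plants 1 day after application. After incubation at 20° C and 60% rh, disease control relative to untreated segments was rated 6-8 days after application.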

[9] = system: Monographella nivalis (syn. Microdochium nivale, Fusarium nivale); assay: Monographella nivalis (snow mould, foot rot of cereals), PDB microtiter plate, visual after 72 hrs; format: cell-based; conditions: applied alone
[10] = system: Sphaerotheca fuliginea; assay: Sphaerotheca fuliginea (powdery mildew) on cucumber, preventive treatment; format: in vivo; conditions: solo, 2 days preventive, 10 days after application
Excerpt: In the following Tables 'Activity (%)' means the assessed experimental activity (% disease control in this test when compared to untreated control leaf disks under the same conditions, which show extensive disease development) and “P” is the expected value calculated (expected) activity according to the COLBY formula (see above). The column headed 'S?' indicates whether or not synergy was observed, with 'y' meaning that synergy was observed. Sphaerotheca fuliqinea (Powdery Mildew) on Cucumber, Preventive Treatment […] Cucumber plants with unfolded cotyledons were sprayed with a roomsprayer and 40 ml/4 plants spray volume with the test compounds, either solo or in […] shown in the table below. 2 days after application the plants were infested with spores of Sphaerotheca fuliginea.

[11] = system: Botrytis cinerea; assay: Botrytis cinerea (gray mould), PDB microtiter plate, visual after 72 hrs; format: cell-based; conditions: alone; for inhibition at 0.00390625 ppm: rate 0.00390625 ppm; for inhibition at 0.0078125 ppm: rate 0.0078125 ppm; for inhibition at 0.015625 ppm: rate 0.015625 ppm; for inhibition at 0.03125 ppm: rate 0.03125 ppm; for inhibition at 0.03125 ppm / inhibition at 0.0625 ppm: read-out: Activity (%); for inhibition at 0.0625 ppm: rate 0.0625 ppm; for inhibition at 0.125 ppm: rate 0.125 ppm; for inhibition at 0.25 ppm: rate 0.25 ppm

CCN(C)/C=N/c1cc(Br)c(OC(C)c2cc(F)cc(F)c2)nc1C (stereo not drawn) [Q.113]
inhibition at 0.0078125 ppm ([1]; Mycosphaerella arachidis, 0.0078125 ppm, read-out: Activity (%)): 0% | inhibition at 0.015625 ppm ([1]; Mycosphaerella arachidis, 0.015625 ppm, read-out: Activity (%)): 0% | inhibition at 0.25 ppm ([1]; Mycosphaerella arachidis, 0.25 ppm, read-out: Activity (%)): 70% | inhibition at 0.5 ppm ([1]; Mycosphaerella arachidis, 0.5 ppm, read-out: Activity (%)): 70% | Activity (%) ([1]; 0.125 ppm): 50% | inhibition of growth at 0.0195312 ppm ([2]; rate 0.01953125 ppm): 15% | inhibition of growth at 0.0390625 ppm ([2]; rate 0.0390625 ppm): 28% | inhibition of growth at 0.078125 ppm ([2]; rate 0.078125 ppm): 31% | inhibition of growth at 0.15625 ppm [2]: 42% | inhibition of growth at 0.3125 ppm [2]: 34% | inhibition of growth at 0.625 ppm [2]: 39% | inhibition of growth at 1.25 ppm [2]: 42% | inhibition of growth at 10 ppm ([2]; rate 10 ppm): 63% | inhibition at 0.00390625 ppm [3]: 0% | inhibition at 0.0078125 ppm [3]: 0% | inhibition at 0.015625 ppm [3]: 0% | inhibition at 0.03125 ppm [3]: 0% | inhibition at 0.0625 ppm [3]: 0% | inhibition at 0.125 ppm [3]: 0% | inhibition at 0.25 ppm [3]: 0% | inhibition at 0.5 ppm [3]: 0% | inhibition at 1 ppm [3]: 0% | inhibition at 2 ppm [3]: 0% | Activity ([4]; rate 25 ppm): 2% | Activity ([4]; rate 50 ppm): 2% | Activity ([4]; rate 100 ppm): 39% | Activity ([5]; rate 0.5 g ai/ha): 1% | Activity ([5]; rate 2 g ai/ha): 25% | Activity ([6]; 1 g a.i./ha): 1% | Activity ([6]; 3 g a.i./ha): 0% | Activity ([6]; 81 g a.i./ha): 53% | pest or weed control at 200 ppm [7]: ≥ 50% | pest or weed control at 200 ppm [8]: ≥ 50% | inhibition at 0.00390625 ppm ([9]; Monographella nivalis, 0.00390625 ppm): 0% | inhibition at 0.0078125 ppm ([9]; Monographella nivalis, 0.0078125 ppm): 0% | inhibition at 0.015625 ppm ([9]; Monographella nivalis, 0.015625 ppm): 0% | inhibition at 0.03125 ppm ([9]; Monographella nivalis, 0.03125 ppm): 0% | inhibition at 0.0625 ppm ([9]; Monographella nivalis, 0.0625 ppm): 0% | inhibition at 0.125 ppm ([9]; Monographella nivalis, 0.125 ppm): 0% | inhibition at 0.25 ppm ([9]; Monographella nivalis, 0.25 ppm): 0% | inhibition at 2 ppm ([9]; Monographella nivalis, 2 ppm): 70% | inhibition at 2 ppm ([9]; Monographella nivalis, rate 2 ppm): 70% | Activity (%) ([9]; 0.5 ppm): 20% | Activity (%) ([9]; 1 ppm): 20% | Activity (%) ([9]; rate 0.125 ppm): 2% | Activity (%) ([9]; rate 0.25 ppm): 2% | Activity (%) ([9]; rate 0.5 ppm): 20% | Activity (%) ([9]; rate 1 ppm): 20% | Activity ([10]; rate 0.2 ppm): 0% | Activity ([10]; rate 0.6 ppm): 0% | Activity ([10]; rate 2 ppm): 0% | inhibition at 0.00390625 ppm ([11]; Botrytis cinerea): 0% | inhibition at 0.0078125 ppm ([11]; Botrytis cinerea): 0% | inhibition at 0.015625 ppm ([11]; Botrytis cinerea): 0% | inhibition at 0.03125 ppm ([11]; Botrytis cinerea): 0% | inhibition at 0.0625 ppm ([11]; Botrytis cinerea): 0% | inhibition at 0.125 ppm ([11]; Botrytis cinerea): 0% | inhibition at 0.25 ppm ([11]; Botrytis cinerea): 0% | inhibition at 0.5 ppm ([11]; Botrytis cinerea, rate 0.5 ppm): 0% | inhibition at 1 ppm ([11]; Botrytis cinerea, rate 1 ppm): 0% | inhibition at 2 ppm ([11]; Botrytis cinerea, rate 2 ppm): 0%

CCN(C)/C=N/c1cc(Br)c(O[C@H]2CC[C@@H](C(C)C)CC2)nc1C [Q.135]
inhibition at 0.00390625 ppm ([1]; Mycosphaerella arachidis, 0.00390625 ppm, read-out: Activity (%)): 0% | inhibition at 0.03125 ppm ([1]; Mycosphaerella arachidis, 0.03125 ppm, read-out: Activity (%)): 50% | inhibition at 0.0625 ppm ([1]; Mycosphaerella arachidis, 0.0625 ppm, read-out: Activity (%)): 50% | inhibition at 0.15625 ppm ([1]; Mycosphaerella arachidis, 0.15625 ppm): 0% | Activity (%) ([1]; 0.015625 ppm): 20% | Activity (%) ([1]; 0.03125 ppm): 70% | Activity (%) ([1]; 0.0625 ppm): 70% | inhibition of growth at 0.15625 ppm [2]: 29% | inhibition of growth at 0.3125 ppm [2]: 34% | inhibition of growth at 0.625 ppm [2]: 32% | inhibition of growth at 1.25 ppm [2]: 22% | inhibition at 0.00390625 ppm [3]: 0% | inhibition at 0.0078125 ppm [3]: 0% | inhibition at 0.015625 ppm [3]: 0% | inhibition at 0.03125 ppm [3]: 0% | inhibition at 0.0625 ppm [3]: 0% | inhibition at 0.125 ppm [3]: 0% | inhibition at 0.25 ppm [3]: 0% | inhibition at 0.5 ppm [3]: 0% | inhibition at 1 ppm [3]: 0% | inhibition at 2 ppm [3]: 0% | Activity ([4]; rate 25 ppm): 0% | Activity ([4]; rate 50 ppm): 0% | Activity ([4]; rate 100 ppm): 15% | Activity ([5]; rate 0.5 g ai/ha): 13% | Activity ([5]; rate 2 g ai/ha): 41% | Activity ([6]; 1 g a.i./ha): 0% | Activity ([6]; 3 g a.i./ha): 0% and 9% | Activity ([6]; 9 g a.i./ha): 33% and 43% | Activity ([6]; 27 g a.i./ha): 52% and 82% | Activity ([6]; 81 g a.i./ha): 70% | pest or weed control at 200 ppm [7]: ≥ 50% | pest or weed control at 200 ppm [8]: ≥ 50% | inhibition at 0.0078125 ppm ([9]; Monographella nivalis, rate 0.0078125 ppm): 0% | inhibition at 0.015625 ppm ([9]; Monographella nivalis, rate 0.015625 ppm): 0% | inhibition at 0.125 ppm ([9]; Monographella nivalis, rate 0.125 ppm): 70% | inhibition at 0.3125 ppm ([9]; Monographella nivalis, rate 0.3125 ppm): 0% | inhibition at 0.625 ppm ([9]; Monographella nivalis, rate 0.625 ppm): 50% | Activity (%) ([9]; rate 0.0625 ppm): 20% | Activity ([10]; rate 0.2 ppm): 0% | Activity ([10]; rate 0.6 ppm): 0% | Activity ([10]; rate 2 ppm): 0% | inhibition at 0.00390625 ppm ([11]; Botrytis cinerea): 0% | inhibition at 0.0078125 ppm ([11]; Botrytis cinerea): 0% | inhibition at 0.015625 ppm ([11]; Botrytis cinerea): 0% | inhibition at 0.03125 ppm ([11]; Botrytis cinerea): 0% | inhibition at 0.0625 ppm ([11]; Botrytis cinerea): 0% | inhibition at 0.125 ppm ([11]; Botrytis cinerea): 0% | inhibition at 0.25 ppm ([11]; Botrytis cinerea): 0% | inhibition at 2 ppm ([11]; Botrytis cinerea, rate 2 ppm): 70% | Activity (%) ([11]; rate 0.5 ppm): 20% | Activity (%) ([11]; rate 1 ppm): 20% | Activity (%) ([11]; rate 2 ppm): 50%
